Several values for one entry are separate records, joined by “and”; a condition that tells them apart may be missing. Equal entries are not always repeated. Where two headings read alike, the source gives them in different places.
Columns and labels:
[1] = molecular target: T1, SARS-CoV-2 NSP3 macrodomain (Mac1) (Severe acute respiratory syndrome coronavirus 2, UniProt P0DTD1); assay: biochemical; format: binding
[2] = molecular target: T1, SARS-CoV-2 NSP3 macrodomain (Mac1); format: binding; conditions: for 1-BDC (PanDDA run, DMSO background map): event 1; for Total number of conformations: ligand conformations modeled in the crystal structure; for 2*(1-BDC) (%): occupancy estimate from PanDDA
[3] = HTRF binding curve, SARS-CoV-2 Mac1
[4] = PanDDA background density correction factor
[5] = TRUE = ligand-bound crystal structure obtained (PDB code given)
[6] = crystal soak concentration 20 mM
[7] = crystal soak concentration 20 mM, P43 crystals
[8] = refined crystallographic occupancy
[9] = site of Mac1 occupied in the X-ray crystal structure (Adenosine or Distal)
[10] = soak concentration 10 mM, P43 crystals
[11] = PanDDA background density correction, 1-BDC
[12] = SARS CoV-2 macrodomain HTRF assay, dose-response
[13] = crystal soak 10 mM, P43 crystal form
[14] = ligand-bound crystal structure obtained (TRUE)
[15] = site occupied in X-ray crystal structure
[16] = TRUE = crystal structure with ligand obtained
[17] = site of ligand in X-ray crystal structure
[18] = crystal soak concentration 10 mM
[19] = crystal soak concentration 10 mM, P43 crystals

Row | SMILES | Hill slope [1, 3] | Occupancy difference (refined_occupancy - 2*(1-BDC)) [2] | 1-BDC [2, 4] | Total number of conformations [2] | 2*(1-BDC) (%) [2] [%] | Refined ligand occupancy (%) [2, 8] [%] | Hill slope [1, 12] | PanDDA run, overall: Hit [2, 13] | PanDDA run, DMSO background map: 1-BDC ([2]; crystal soak 10 mM) | PanDDA run, DMSO background map: Hit ([2]; crystal soak 10 mM) | X-ray crystal structure [2, 14] | Binding site [2, 15] | also measured
1 | OCC(Cc1ccccc1)Nc1ncnc2[nH]ccc12 (centres unmarked) [AVI-313] | 1.2 | 14 | 0.18 | 2 | 36 | 50 | – | – | – | – | – | – | Hill slope ([1]; dose-response): 1.2; X-ray crystal structure [2, 5]: TRUE; Hit (PanDDA run, DMSO background map) [2, 6]: TRUE; 1-BDC (PanDDA run, DMSO background map) [2, 6]: 0.25; Hit (PanDDA run, overall) [2, 7]: TRUE; Modeling comment (PanDDA run, overall) [2, 7]: Duplicate, not modeled; Binding site [2, 9]: Adenosine; PanDDA run, DMSO background map: 1-BDC ([2]; soak concentration 10 mM): 0.18; PanDDA run, DMSO background map: Hit ([2]; soak concentration 10 mM): TRUE; PanDDA run, DMSO background map: Modeled ([2]; soak concentration 10 mM): TRUE; PanDDA run, overall: Hit [2, 10]: TRUE; PanDDA run, overall: Modeled [2, 10]: TRUE
2 | CC(CNC(=O)c1ccc2c(c1)CCC(=O)N2)C(=O)O (centres unmarked) [AVI-328] | 1.3 | 0 | 0.11 | 2 | 22 | 22 | – | – | – | – | – | – | inhibition at 200 µM ([1]; compound at 200 μM, mean of three to four technical replicates, read-out: % competition at 200 μM (preliminary HTRF screen)): 50%; Hill slope ([1]; dose-response): 1.3; X-ray crystal structure [2, 5]: TRUE; Binding site [2, 9]: Adenosine; PanDDA run, DMSO background map: 1-BDC ([2]; soak concentration 10 mM): 0.11 and 0.1; PanDDA run, DMSO background map: Hit ([2]; soak concentration 10 mM): TRUE; PanDDA run, DMSO background map: Modeled ([2]; soak concentration 10 mM): TRUE; PanDDA run, overall: Hit [2, 10]: TRUE; PanDDA run, overall: Modeled [2, 10]: TRUE; PanDDA run, overall: Modeling comment [2, 10]: Duplicate, not modeled
3 | CC1CC(C(=O)O)CN(C(=O)CSc2ccc(O)cc2)C1 (centres unmarked) [AVI-334] | – | – | – | – | – | – | – | – | – | – | – | – | Average % competition ([1]; single dose concentration 200 μM (TS-FrankenROCS series)): 25%; PanDDA run, DMSO background map: 1-BDC ([2]; soak concentration 10 mM): 0.07; PanDDA run, DMSO background map: Hit ([2]; soak concentration 10 mM): TRUE; PanDDA run, overall: Hit [2, 10]: TRUE; PanDDA run, overall: Modeling comment [2, 10]: Weak density, not modeled
4 | O=C1CCc2cc(C(=O)N3CC(C(=O)O)CCC34CCCC4)c(F)cc2N1 (centres unmarked) [AVI-338] | 1.5 | – | – | – | 14 | – | – | – | – | – | – | – | Hill slope ([1]; dose-response): 1.5; 1-BDC [2, 11]: 0.07; X-ray crystal structure [2, 5]: TRUE; Hit (PanDDA run, DMSO background map) [2, 6]: TRUE; Modeled (PanDDA run, DMSO background map) [2, 6]: TRUE; 1-BDC (PanDDA run, DMSO background map) [2, 6]: 0.07; Hit (PanDDA run, overall) [2, 7]: TRUE; Modeled (PanDDA run, overall) [2, 7]: TRUE; Refined ligand occupancy (%) ([2]; crystallographic refinement): 14%; Binding site [2, 9]: Adenosine
5 | OC[C@@H]1C[C@H](O)CN1c1ncnc2[nH]ccc12 [AVI-610] | 1.2 | 18 | 0.21 | 1 | 42 | 60 | 1.2 | TRUE | 0.34 and 0.31 and 0.21 and 0.26 | TRUE | TRUE | Adenosine | –
6 | OCC(Nc1ncnc2[nH]ccc12)C1CC1 (centres unmarked) [AVI-3651] | 1.2 | 0 | 0.18 | 1 | 36 | 36 | 1.2 | TRUE | 0.18 | TRUE | – | – | X-ray crystal structure [2, 16]: TRUE; PanDDA run, overall: Modeled [2, 13]: TRUE; Binding site [2, 17]: Adenosine
7 | O[C@H]1CC[C@@H]2CCN(c3ncnc4[nH]ccc34)[C@@H]21 [AVI-3664] | 1.2 | 0 | 0.16 | 1 | 32 | 32 | 1.2 | TRUE | 0.16 | TRUE | TRUE | Adenosine | PanDDA run, overall: Modeled [2, 13]: TRUE
8 | CCC(O)[C@H]1CCCN1c1ncnc2[nH]ccc12 (some centres unmarked) [AVI-3666] | 1.3 | 10 | 0.3 | 1 | 60 | 70 | 1.3 | TRUE | 0.3 | TRUE | TRUE | Adenosine | PanDDA run, overall: Modeled [2, 13]: TRUE
9 | CC(C)(C)[C@@H]1CCN(c2ncnc3[nH]ccc23)[C@H](CO)C1 [AVI-3722] | – | 0 | 0.11 | 1 | 22 | 22 | – | TRUE | 0.11 | TRUE | TRUE | Adenosine | –
10 | CC1(C)CCC(CO)N(c2ncnc3[nH]ccc23)C1 (centres unmarked) [AVI-3726] | – | 0 | 0.17 | 3 | 34 | 34 | – | TRUE | 0.17 | TRUE | TRUE | Adenosine | –
11 | OCC1CC2(CCCCC2)CN1c1ncnc2[nH]ccc12 (centres unmarked) [AVI-3727] | – | 0 | 0.29 | 1 | 58 | 58 | – | TRUE | 0.29 | TRUE | TRUE | Adenosine | PanDDA run, overall: Modeling comment ([2]; crystal soak 10 mM): Distal site, weak density, not modeled
12 | OCC1CC2(CCC2)CN1c1ncnc2[nH]ccc12 (centres unmarked) [AVI-3728] | – | 0 | 0.24 | 2 | 48 | 48 | – | TRUE | 0.24 | TRUE | TRUE | Adenosine | PanDDA run, overall: Modeling comment ([2]; crystal soak 10 mM): Distal site, weak density, not modeled
13 | C[C@@H](O)[C@H](CO)Nc1ncnc2[nH]ccc12.O=C(O)C(F)(F)F [AVI-3730] | – | 0 | 0.14 | 1 | 28 | 28 | – | TRUE | 0.14 | TRUE | – | – | X-ray crystal structure [2, 16]: TRUE; Binding site [2, 17]: Adenosine
14 | Cc1nn(C)cc1C1CC[C@H](CO)N1c1ncnc2[nH]ccc12 (some centres unmarked) [AVI-3733] | – | 20 | 0.1 | 1 | 20 | 40 | – | TRUE | 0.1 | TRUE | TRUE | Adenosine | PanDDA run, overall: Modeled [2, 13]: TRUE
15 | OCC1CCC2(CCOCC2)CN1c1ncnc2[nH]ccc12 (centres unmarked) [AVI-4065] | 1.2 | – | – | – | – | – | 1.2 | – | – | – | – | – | –
16 | OC1(CNc2ncnc3[nH]ccc23)CCC2(CC1)OCCO2 [AVI-4315] | 1.2 | – | – | – | – | – | 1.2 | – | – | – | – | – | –
17 | CC(Nc1ncnc2[nH]ccc12)C1(O)CCCCC1 (centres unmarked) [AVI-4321] | 1.2 | – | – | – | – | – | 1.2 | – | – | – | – | – | –
18 | Cc1c[nH]c2ncnc(NCC3(O)CCC(O)CC3)c12 (centres unmarked) [AVI-4329] | – | – | – | – | 18 | – | – | – | – | – | TRUE | Adenosine | 1-BDC [2, 11]: 0.09; Hit (PanDDA run, DMSO background map) [2, 18]: TRUE; Modeled (PanDDA run, DMSO background map) [2, 18]: TRUE; 1-BDC (PanDDA run, DMSO background map) [2, 18]: 0.09 and 0.11; Hit (PanDDA run, overall) [2, 19]: TRUE; Modeled (PanDDA run, overall) [2, 19]: TRUE; Modeling comment (PanDDA run, overall) [2, 19]: Duplicate, not modeled; Refined ligand occupancy (%) ([2]; crystallographic refinement): 30%
19 | CC(O)C(C)Nc1ncnc2[nH]ccc12 (centres unmarked) [AVI-5158] | – | – | – | – | 34 | – | – | – | – | – | – | – | 1-BDC [2, 11]: 0.17; X-ray crystal structure [2, 16]: TRUE; Refined ligand occupancy (%) ([2]; crystallographic refinement): 34%; Binding site [2, 17]: Adenosine
20 | CC(C)C1CCCN1c1ncnc2[nH]ccc12 (centres unmarked) [AVI-5216] | – | – | – | – | 26 | – | – | – | – | – | TRUE | Adenosine | 1-BDC [2, 11]: 0.13; Refined ligand occupancy (%) ([2]; crystallographic refinement): 40%
21 | CC(C)(C)C1CCCN1c1ncnc2[nH]ccc12 (centres unmarked) [AVI-6000] | – | – | – | – | 14 | – | – | – | – | – | TRUE | Adenosine | 1-BDC [2, 11]: 0.07; Refined ligand occupancy (%) ([2]; crystallographic refinement): 14%
